According to PubChem BioAssay AID2060491 (Molecular Pharmacology Branch, DTP, NCI, 2025):

System: 857933-349-R-J2-PDC complex spheroids, viability
Experiment: Anticancer human tumor 857933-349-R-J2-PDC patient-derived colon adenocarcinoma cell line growth inhibition [GQUAD]
Details: for IC50: curve of first compound; for viability, T/C: stronger effect = lower value
Procedure, shortened: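 Viability of tumor cells grown as complex spheroids with endothelial and stromal cells, exposed to drug combinations. Top concentration at or near clinical Cmax (else 10 microM), diluted in half-log increments.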

[1] = second compound 0.0316 µM, first compound 0.0316 µM
[2] = second compound 0.0316 µM, first compound 0.316 µM
[3] = second compound 0.1 µM, first compound 0.0316 µM
[4] = second compound 0.1 µM, first compound 0.316 µM
[5] = second compound 0.316 µM, first compound 0.0316 µM
[6] = second compound 0.316 µM, first compound 0.316 µM
[7] = second compound 1 µM, first compound 0.0316 µM
[8] = second compound 1 µM, first compound 0.316 µM
[9] = second compound 3.16 µM, first compound 0.0316 µM
[10] = second compound 3.16 µM, first compound 0.316 µM
[11] = second compound 10 µM, first compound 0.0316 µM
[12] = second compound 10 µM, first compound 0.316 µM
[13] = second compound 0.0316 µM, first compound 0.1 µM
[14] = second compound 0.0316 µM, first compound 1 µM
[15] = second compound 0.0316 µM, first compound 3.16 µM
[16] = second compound 0.0316 µM, first compound 10 µM
[17] = second compound 0.1 µM, first compound 0.1 µM
[18] = second compound 0.1 µM, first compound 1 µM
[19] = second compound 0.1 µM, first compound 3.16 µM
[20] = second compound 0.1 µM, first compound 10 µM
[21] = second compound 0.316 µM, first compound 0.1 µM
[22] = second compound 0.316 µM, first compound 1 µM
[23] = second compound 0.316 µM, first compound 3.16 µM
[24] = second compound 0.316 µM, first compound 10 µM
[25] = second compound 1 µM, first compound 0.1 µM
[26] = second compound 1 µM, first compound 1 µM
[27] = second compound 1 µM, first compound 3.16 µM
[28] = second compound 1 µM, first compound 10 µM
[29] = second compound 3.16 µM, first compound 0.1 µM
[30] = second compound 3.16 µM, first compound 1 µM
[31] = second compound 3.16 µM, first compound 3.16 µM
[32] = second compound 3.16 µM, first compound 10 µM
[33] = second compound 10 µM, first compound 0.1 µM
[34] = second compound 10 µM, first compound 1 µM
[35] = second compound 10 µM, first compound 3.16 µM
[36] = second compound 10 µM, first compound 10 µM
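Further: spheroids exposed to compounds for one week before readout.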
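Wherever viability, T/C is given: percent viability relative to vehicle DMSO wells taken as 100%.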

CC[C@@]1(O)C(=O)OCc2c1cc1n(c2=O)Cc2cc3c(CN(C)C)c(O)ccc3nc2-1 + CN(C)c1ccc(Nc2c3ccc(NC(=O)CCN4CCCC4)cc3nc3cc(NC(=O)CCN4CCCC4)ccc23)cc1 gave an IC50 (second compound 0.0316 µM) of 262 nM, an IC50 (second compound 0.1 µM) of 272 nM and an IC50 (second compound 0.316 µM) of 277 nM. It also gave an IC50 (second compound 1 µM) of 296 nM, an IC50 (second compound 3.16 µM) greater than 316 nM and an IC50 (second compound 10 µM) greater than 316 nM. It also gave a viability, T/C (second compound 0.0316 µM, first compound 0.000999 µM) of 101%, a viability, T/C (second compound 0.0316 µM, first compound 0.00316 µM) of 103% and a viability, T/C (second compound 0.0316 µM, first compound 0.00999 µM) of 101%. The viability, T/C [1] was 98.2%, the viability, T/C (second compound 0.0316 µM, first compound 0.0999 µM) was 67% and the viability, T/C [2] was 46.7%. For the same compound, the viability, T/C (second compound 0.1 µM, first compound 0.000999 µM) was 105%, the viability, T/C (second compound 0.1 µM, first compound 0.00316 µM) was 109% and the viability, T/C (second compound 0.1 µM, first compound 0.00999 µM) was 95.3%. The viability, T/C [3] was 97.7%, the viability, T/C (second compound 0.1 µM, first compound 0.0999 µM) was 70.5% and the viability, T/C [4] was 47%. It also gave a viability, T/C (second compound 0.316 µM, first compound 0.000999 µM) of 108%, a viability, T/C (second compound 0.316 µM, first compound 0.00316 µM) of 101% and a viability, T/C (second compound 0.316 µM, first compound 0.00999 µM) of 98.7%. It also gave a viability, T/C [5] of 89.6%, a viability, T/C (second compound 0.316 µM, first compound 0.0999 µM) of 80.7% and a viability, T/C [6] of 45.1%. It also gave a viability, T/C (second compound 1 µM, first compound 0.000999 µM) of 99.7%, a viability, T/C (second compound 1 µM, first compound 0.00316 µM) of 99.1% and a viability, T/C (second compound 1 µM, first compound 0.00999 µM) of 95.9%. The viability, T/C [7] was 88.5%, the viability, T/C (second compound 1 µM, first compound 0.0999 µM) was 77.1% and the viability, T/C [8] was 48%. The viability, T/C (second compound 3.16 µM, first compound 0.000999 µM) was 94.2%, the viability, T/C (second compound 3.16 µM, first compound 0.00316 µM) was 77.4% and the viability, T/C (second compound 3.16 µM, first compound 0.00999 µM) was 84.7%. It also gave a viability, T/C [9] of 76.1%, a viability, T/C (second compound 3.16 µM, first compound 0.0999 µM) of 77.8% and a viability, T/C [10] of 54.5%. For the same compound, the viability, T/C (second compound 10 µM, first compound 0.000999 µM) was 72.3%, the viability, T/C (second compound 10 µM, first compound 0.00316 µM) was 76.8% and the viability, T/C (second compound 10 µM, first compound 0.00999 µM) was 69.5%. It also gave a viability, T/C [11] of 69.9%, a viability, T/C (second compound 10 µM, first compound 0.0999 µM) of 68.7% and a viability, T/C [12] of 59%.
For COc1cc(C2c3cc4c(cc3C(OC3OC5COC(C)OC5C(O)C3O)C3COC(=O)C23)OCO4)cc(OC)c1O (stereo not drawn) + CN(C)c1ccc(Nc2c3ccc(NC(=O)CCN4CCCC4)cc3nc3cc(NC(=O)CCN4CCCC4)ccc23)cc1, the IC50 (second compound 0.0316 µM) was 6110 nM, the IC50 (second compound 0.1 µM) was 6680 nM and the IC50 (second compound 0.316 µM) was 5700 nM. For the same compound, the IC50 (second compound 1 µM) was 5970 nM, the IC50 (second compound 3.16 µM) was 5780 nM and the IC50 (second compound 10 µM) was 5770 nM. For the same compound, the viability, T/C [1] was 98.2%, the viability, T/C [13] was 95.4% and the viability, T/C [2] was 80.3%. For the same compound, the viability, T/C [14] was 79.3%, the viability, T/C [15] was 58.8% and the viability, T/C [16] was 42.1%. For the same compound, the viability, T/C [3] was 96.3%, the viability, T/C [17] was 102% and the viability, T/C [4] was 84.3%. For the same compound, the viability, T/C [18] was 76.3%, the viability, T/C [19] was 59.6% and the viability, T/C [20] was 44.8%. For the same compound, the viability, T/C [5] was 102%, the viability, T/C [21] was 95.8% and the viability, T/C [6] was 79.1%. The viability, T/C [22] was 70.2%, the viability, T/C [23] was 60.2% and the viability, T/C [24] was 41.8%. It also gave a viability, T/C [7] of 101%, a viability, T/C [25] of 89.6% and a viability, T/C [8] of 83.3%. The viability, T/C [26] was 68.4%, the viability, T/C [27] was 61.6% and the viability, T/C [28] was 41.6%. The viability, T/C [9] was 90.8%, the viability, T/C [29] was 81.2% and the viability, T/C [10] was 84.6%. For the same compound, the viability, T/C [30] was 71.8%, the viability, T/C [31] was 60.9% and the viability, T/C [32] was 40.3%. For the same compound, the viability, T/C [11] was 74.4%, the viability, T/C [33] was 76.9% and the viability, T/C [12] was 71%. For the same compound, the viability, T/C [34] was 67%, the viability, T/C [35] was 58.2% and the viability, T/C [36] was 42.7%.
For COc1cccc2c1C(=O)c1c(O)c3c(c(O)c1C2=O)CC(O)(C(=O)CO)CC3OC1CC(N)C(O)C(C)O1 (stereo not drawn) + CN(C)c1ccc(Nc2c3ccc(NC(=O)CCN4CCCC4)cc3nc3cc(NC(=O)CCN4CCCC4)ccc23)cc1, the IC50 (second compound 0.0316 µM) was 917 nM, the IC50 (second compound 0.1 µM) was 828 nM and the IC50 (second compound 0.316 µM) was 663 nM. The IC50 (second compound 1 µM) was 711 nM, the IC50 (second compound 3.16 µM) was 739 nM and the IC50 (second compound 10 µM) was 978 nM. For the same compound, the viability, T/C [1] was 100%, the viability, T/C [13] was 97.1% and the viability, T/C [2] was 76.7%. For the same compound, the viability, T/C [14] was 52.2%, the viability, T/C [15] was 8.8% and the viability, T/C [16] was 0.64%. The viability, T/C [3] was 99.2%, the viability, T/C [17] was 92.8% and the viability, T/C [4] was 79.3%. It also gave a viability, T/C [18] of 45.4%, a viability, T/C [19] of 9.85% and a viability, T/C [20] of 0.72%. The viability, T/C [5] was 102%, the viability, T/C [21] was 95.8% and the viability, T/C [6] was 72.7%. The viability, T/C [22] was 37.3%, the viability, T/C [23] was 10.8% and the viability, T/C [24] was 0.64%. The viability, T/C [7] was 103%, the viability, T/C [25] was 86% and the viability, T/C [8] was 76.2%. The viability, T/C [26] was 39.6%, the viability, T/C [27] was 12.5% and the viability, T/C [28] was 0.68%. For the same compound, the viability, T/C [9] was 91.6%, the viability, T/C [29] was 76.8% and the viability, T/C [10] was 73.7%. It also gave a viability, T/C [30] of 42.6%, a viability, T/C [31] of 11.9% and a viability, T/C [32] of 0.97%. For the same compound, the viability, T/C [11] was 70.7%, the viability, T/C [33] was 73.4% and the viability, T/C [12] was 67.1%. The viability, T/C [34] was 50.1%, the viability, T/C [35] was 9.58% and the viability, T/C [36] was 1.5%.
Nc1ccn(C2OC(CO)C(O)C2(F)F)c(=O)n1 (stereo not drawn) + CN(C)c1ccc(Nc2c3ccc(NC(=O)CCN4CCCC4)cc3nc3cc(NC(=O)CCN4CCCC4)ccc23)cc1 showed an IC50 (second compound 0.0316 µM) of 366 nM, an IC50 (second compound 0.1 µM) of 383 nM and an IC50 (second compound 0.316 µM) of 357 nM. It also gave an IC50 (second compound 1 µM) of 379 nM, an IC50 (second compound 3.16 µM) of 497 nM and an IC50 (second compound 10 µM) of 639 nM. The viability, T/C [1] was 99.8%, the viability, T/C [13] was 78.5% and the viability, T/C [2] was 56.7%. It also gave a viability, T/C [14] of 26.6%, a viability, T/C [15] of 15.5% and a viability, T/C [16] of 16.1%. It also gave a viability, T/C [3] of 98.8%, a viability, T/C [17] of 81.3% and a viability, T/C [4] of 58.3%. It also gave a viability, T/C [18] of 22.9%, a viability, T/C [19] of 15% and a viability, T/C [20] of 15.7%. The viability, T/C [5] was 98.5%, the viability, T/C [21] was 81.3% and the viability, T/C [6] was 57%. For the same compound, the viability, T/C [22] was 18.1%, the viability, T/C [23] was 14.6% and the viability, T/C [24] was 15.6%. The viability, T/C [7] was 97%, the viability, T/C [25] was 77.3% and the viability, T/C [8] was 60%. It also gave a viability, T/C [26] of 19.4%, a viability, T/C [27] of 16.6% and a viability, T/C [28] of 14.5%. The viability, T/C [9] was 83.2%, the viability, T/C [29] was 75.9% and the viability, T/C [10] was 65.2%. The viability, T/C [30] was 27%, the viability, T/C [31] was 18.3% and the viability, T/C [32] was 16.5%. The viability, T/C [11] was 73.8%, the viability, T/C [33] was 73.4% and the viability, T/C [12] was 60.7%. For the same compound, the viability, T/C [34] was 43.8%, the viability, T/C [35] was 24.3% and the viability, T/C [36] was 21.8%.
